≈ marks a conversion by molar mass, not a printed value.
Experiments:
Format in all cases: cell-based
[1] = tested on: Enterobacter cloacae P 99; assay: In vitro antibiotic activity (MIC); conditions: P99, read-out: in vitro MIC
Escherichia coli 16 = assay: In vitro antibiotic activity (MIC)
[2] = tested on: Haemophilus influenzae 24; assay: In vitro antibiotic activity (MIC)
[3] = tested on: Neisseria meningitidis 1316; assay: In vitro antibiotic activity (MIC)
[4] = tested on: Pseudomonas aeruginosa K 799/61; assay: In vitro antibiotic activity (MIC); conditions: K799/61, read-out: in vitro MIC
[5] = tested on: Escherichia coli 205 R + TEM; assay: In vitro antibiotic activity (MIC); conditions: read-out: in vitro MIC
Serratia marcescens 344 = assay: In vitro antibiotic activity (MIC)
[6] = tested on: Staphylococcus aureus Wood 46; assay: In vitro antibiotic activity (MIC); conditions: WOOD46
Proteus mirabilis 774 = assay: In vitro antibiotic activity (MIC)
[7] = tested on: Clostridium perfringens 194 AN; assay: microbe, parasite or virus in culture; conditions: read-out: in vitro MIC
[8] = tested on: Staphylococcus aureus 2999i+p+; assay: In vitro antibiotic activity (MIC)
Proteus morganii 2359 = assay: In vitro antibiotic activity (MIC); conditions: Morganella morganii
[9] = tested on: Streptococcus pneumoniae III/84; assay: In vitro antibiotic activity (MIC)
[10] = tested on: Bacteroides fragilis L 01; assay: In vitro antibiotic activity (MIC); conditions: L01
Escherichia coli 2018 = assay: In vitro antibiotic activity (MIC)
[11] = tested on: Pseudomonas aeruginosa ATCC 12055; assay: In vitro antibiotic activity (MIC); conditions: ATCC12055
[12] = tested on: Pseudomonas aeruginosa 143738R; assay: In vitro antibiotic activity (MIC)
Escherichia coli 205 = assay: In vitro antibiotic activity (MIC)
[13] = tested on: Klebsiella pneumoniae 327; assay: In vitro antibiotic activity (MIC)
[14] = tested on: Streptococcus pyogenes Aronson 1129; assay: In vitro antibiotic activity (MIC); conditions: ARONSON1129
Escherichia coli UB 1005 = assay: In vitro antibiotic activity (MIC); conditions: UB1005
Excerpt: Ueberraschenderweise weisen die erfindungsgemässen Penem-Verbindungen gegenüber strukturverwandten und vorbekannten Penemen eine überlegene Wirksamkeit auf. Dies wird deutlich beim Vergleich der MIC-Daten (minimum inhibitory concentrations, in vitro gemessen) von (5R,6S)-2-[(2R,S)-2-Amino-but-1-yl)-6-[(lR)-1-hydroxyäthyl]-2-penem-3-carbonsäure (Verbindung A) mit bekannten homologen Penemen, die in Position 2 des Penem-Ringes einen 4-Aminobutyl- bzw. 1-Aminobutyl-Substituenten tragen, nämlich (5R,6S)-2-(4-Aminobutyl)-6-hydroxymethyl-2-penem-3-carbonsäure (Europäische Patentanmeldung Nr. 82113, Verbindung B) und (5R,6S)-2-(1-Aminobutyl)-6-hydroxymethyl-2-penem-3-carbonsäure (Europäische Patentanmeldung Nr. 125 208, Verbindung C). Die Ergebnisse sind in der folgenden Tabelle 1 zusammengefasst.

[15] = tested on: Neisseria gonorrhoeae 1317/4; assay: In vitro antibiotic activity (MIC)
[16] = tested on: Staphylococcus aureus A 124; assay: In vitro antibiotic activity (MIC); conditions: A124
Escherichia coli DC 2 = assay: In vitro antibiotic activity (MIC); conditions: DC2
Escherichia coli B-1385 = assay: In vitro antibiotic activity (MIC); conditions: B1385
[17] = tested on: Enterobacter cloacae ATCC 13074; assay: In vitro antibiotic activity (MIC); conditions: ATCC13074
[18] = tested on: Staphylococcus aureus 10 B; assay: In vitro antibiotic activity (MIC)

Compound	MIC [1] [µg/mL]	MIC (Escherichia coli 16) [µg/mL]	MIC [2] [µg/mL]	MIC [4] [µg/mL]	MIC [5] [µg/mL]	MIC (Serratia marcescens 344) [µg/mL]	MIC (Proteus mirabilis 774) [µg/mL]	MIC [7] [µg/mL]	MIC [8] [µg/mL]	MIC (Proteus morganii 2359) [µg/mL]	MIC [9] [µg/mL]	MIC [10] [µg/mL]	MIC [11] [µg/mL]	MIC (Escherichia coli 205) [µg/mL]	MIC [13] [µg/mL]	MIC [14] [µg/mL]	MIC (Escherichia coli UB 1005) [µg/mL]	MIC (Escherichia coli DC 2) [µg/mL]	MIC [17] [µg/mL]	MIC [18] [µg/mL]	further results
CCC(N)CC1=C(C(=O)O)N2C(=O)[C@H]([C@@H](C)O)[C@H]2S1 (stereo partly drawn) [Verbindung A, (5R,6S)-2-[(2R,S)-2-Amino-but-1-yl)-6-[(lR)-1-hydroxyäthyl]-2-penem-3-carbonsäure]	0.5 (≈ 1.75 µM)	1 (≈ 3.49 µM)	16 (≈ 55.9 µM)	4 (≈ 14 µM)	2 (≈ 6.98 µM)	8 (≈ 27.9 µM)	2 (≈ 6.98 µM)	0.2 (≈ 0.698 µM)	0.05 (≈ 0.175 µM)	8 (≈ 27.9 µM)	0.05 (≈ 0.175 µM)	0.5 (≈ 1.75 µM)	32 (≈ 112 µM)	1 (≈ 3.49 µM)	1 (≈ 3.49 µM)	0.05 (≈ 0.175 µM)	2 (≈ 6.98 µM)	16 (≈ 55.9 µM)	2 (≈ 6.98 µM)	0.02 (≈ 0.0698 µM)	MIC [3]: 1 µg/mL (≈ 3.49 µM); MIC [6]: 0.02 µg/mL (≈ 0.0698 µM); MIC (Escherichia coli 2018): 0.5 µg/mL (≈ 1.75 µM); MIC [12]: 64 µg/mL (≈ 224 µM); MIC [15]: 0.5 µg/mL (≈ 1.75 µM); MIC [16]: 0.1 µg/mL (≈ 0.349 µM); MIC (Escherichia coli B-1385): 1 µg/mL (≈ 3.49 µM)
NCCCCC1=C(C(=O)O)N2C(=O)[C@H](CO)[C@H]2S1 [Verbindung B, (5R,6S)-2-(4-Aminobutyl)-6-hydroxymethyl-2-penem-3-carbonsäure]	4 (≈ 14.7 µM)	4 (≈ 14.7 µM)		4 (≈ 14.7 µM)	8 (≈ 29.4 µM)	16 (≈ 58.8 µM)	16 (≈ 58.8 µM)	4 (≈ 14.7 µM)	0.5 (≈ 1.84 µM)	16 (≈ 58.8 µM)	0.5 (≈ 1.84 µM)	0.5 (≈ 1.84 µM)	8 (≈ 29.4 µM)	4 (≈ 14.7 µM)	4 (≈ 14.7 µM)	0.5 (≈ 1.84 µM)	4 (≈ 14.7 µM)	8 (≈ 29.4 µM)	16 (≈ 58.8 µM)	0.5 (≈ 1.84 µM)	
CCCC(N)C1=C(C(=O)O)N2C(=O)[C@H](CO)[C@H]2S1 (stereo partly drawn) [Verbindung C, (5R,6S)-2-(1-Aminobutyl)-6-hydroxymethyl-2-penem-3-carbonsäure]	64 (≈ 235 µM)	64 (≈ 235 µM)	32 (≈ 118 µM)	64 (≈ 235 µM)	64 (≈ 235 µM)	> 64	> 64	64 (≈ 235 µM)	0.05 (≈ 0.184 µM)	> 64	0.05 (≈ 0.184 µM)	16 (≈ 58.8 µM)	> 64	64 (≈ 235 µM)	32 (≈ 118 µM)	1 (≈ 3.67 µM)	64 (≈ 235 µM)	64 (≈ 235 µM)	> 64	0.05 (≈ 0.184 µM)	MIC [3]: 1 µg/mL (≈ 3.67 µM); MIC [6]: 0.05 µg/mL (≈ 0.184 µM); MIC (Escherichia coli 2018): 32 µg/mL (≈ 118 µM); MIC [12]: > 64 µg/mL; MIC [15]: 2 µg/mL (≈ 7.34 µM); MIC [16]: 0.5 µg/mL (≈ 1.84 µM); MIC (Escherichia coli B-1385): 64 µg/mL (≈ 235 µM)

Reference: patent publication EP0171362A1, “Aminoalkyl penem compounds” (priority 1984, dated 1986)
